# Measured values as given in patent publication US9995734B2, “Human T cell line assay for evaluating the immunologic identity of glatiramer acetate preparations” (Mylan Inc., priority 2013, dated 2018).
# Values joined by “and” are separate entries in the source; they are usually repeats but may differ in a detail not shown here. Identical values can stand only once.
# Legend:
# Format in all cases: cell-based, human
# [1] = system: Donor 1 GMA Expanded T-Cell Lines (222-AG11, 222-AG12, 222-BA11, 222-BC11); test: ATP proliferation assay (CellTiter Glo), Donor 1 GMA expanded T-cell lines, incl. reactivity to non-canonical GA peptides; conditions: for Proliferation (luminescent ATP assay), Mean: T-cell line 222-AG12, autologous B-LCL
# Description: Proliferation was evaluated by measuring ATP content using a luminescent method (CellTiter Glo Luminescent Cell Viability Assay, Promega, Madison, Wis., cat. #G7571) or by measuring BrdU uptake by ELISA (Millipore cat. #2752), in both cases following kit instructions. A split well format was used. Cells in each well were resuspended and 65 μl transferred to the wells of each of two new U-bottom 96-well plates, to generate the replicate plates. For the initial screening, the original 96-well plate received mitomycin-treated autologous PBMC as APC plus 10 μg/mL antigen (GA). A first replicate plate received 100 μl., mitomycin-treated PBMC alone (2×10^5), and no antigen, and a second replicate plate received 100 μL mitomycin-treated PBMC plus GA at a final concentration of 10 μg/mL. Therefore, all three plates received autologous APC (PBMC) treated with mitomycin C to prevent cell division. […] The latter two plates were incubated for 3 days at 37° C., 6% CO2 before adding CellTiter Glo or BrdU and measuring signal. IL-2 was added at 10 U/mL to the original 96-well plate for expansion on Day 17. For subsequent screenings, mitomycin-treated EBV-transformed autologous B-LCL (2×10^5 to 5×10^5 cells/mL) were used as APC.
# On Day 24, cells from the wells corresponding to the eight presumptive GA-specific human T-cell lines listed in Table 4 were transferred to a 24-well plate and expanded by stimulating with 10 μg/mL GMA and mitomycin-treated autologous PBMC as APC (3×10^6 per well, i.e., 1.5×10^6/mL). On Day 32 four of the eight lines, 222-BA11, 222-BC11, 222-AG11, and 222-AG12, were stimulated with 0, 1, 10 and 100 μg/mL GMA and tested in a 96-well plate for a proliferative response to GMA using an ATP assay, again using autologous PBMC as APC (2×10^5 per well, i.e., 1×10^6/mL). […] FIGS. 2A and B show the results of the ATP proliferation assay carried out using 222-AG12, 222-BC11, 222-AG11, and 222-BA11 at Day 35 (control=no antigen). FIGS. 3A-C compare the results of ATP proliferation assays carried out after stimulation with varying concentrations of GMA or Copaxone as indicated, using cell lines 222-BA11, 222-BC11, and 222-AG12.
# Donor 1 GMA T-cell line 222-AG12 was assayed for proliferation following stimulation with 0, 1, 10, and 30 μg/mL each of peptides GLT 631, GAT 631, GAT 111, LT 11, GT 11, GL 14, COP, and GMA, at a T-cell concentration of 2×10^5 cells/mL, in the presence of mitomycin C-treated autologous B-LCL. Line 222-AG12 was assayed after 3 rounds of restimulation (4 total stimulations). Proliferation was measured by luminescent ATP assay.
# [2] = system: Donor 3 COP T-Cell Lines; test: ATP proliferation assay (CellTiter Glo), Donor 3 COP T-cell lines, incl. reactivity to non-canonical GA peptides; conditions: for Non-Canonical Peptide Non-Reactivity: proliferation <2 times no antigen control
# [3] = system: Donor 3 GMA T-Cell Lines; test: ATP proliferation assay (CellTiter Glo), Donor 3 GMA T-cell lines, incl. reactivity to non-canonical GA peptides; conditions: for Non-Canonical Peptide Non-Reactivity: proliferation <2 times no antigen control
substance,measurement,setting,value
poly (Glu-Ala-Tyr; 1:1:1) [GAT 111],Non-Canonical Peptide Non-Reactivity,"[1]; 222-AG12, proliferation <2 times no antigen control",GAT 111
same,Nonreactive T-Cell Line,"[1]; Donor 1 GMA expanded lines, stimulation with the non-canonical GA peptide",222-AG12 (Donor 1)
same,"Proliferation (luminescent ATP assay), Mean",[1]; 1 ug/mL antigen,3391 RLU
same,"Proliferation (luminescent ATP assay), Mean",[1]; 10 ug/mL antigen,2568 RLU
same,"Proliferation (luminescent ATP assay), Mean",[1]; 30 ug/mL antigen,2245 RLU
same,Non-Canonical Peptide Non-Reactivity,[2]; 165-C4C,GAT 111
same,Non-Canonical Peptide Non-Reactivity,[2]; 165-C7C,GAT 111
same,proliferation response to non-canonical peptides,"[2]; 165-E3C, separate experiment",did not react
same,Non-Canonical Peptide Non-Reactivity,[2]; 165-F3C,GAT 111
same,Non-Canonical Peptide Non-Reactivity,[2]; 165-F6C,GAT 111
same,Non-Canonical Peptide Non-Reactivity,[2]; 165-U3C (so in the source),GAT 111
same,Nonreactive T-Cell Line,"[2]; Donor 3 COP lines, stimulation with the non-canonical GA peptide",165-C4C (Donor 3) and 165-C7C (Donor 3) and 165-E3C (Donor 3) and 165-F3C (Donor 3) and 165-F6C (Donor 3)
same,"Proliferation (luminescent ATP assay), Mean","[2]; T-cell line 165-C4C, 1 μg/mL antigen, Day 66 of culture, 0 μg/mL 1881",2330
same,"Proliferation (luminescent ATP assay), Mean","[2]; T-cell line 165-C4C, 3 μg/mL antigen, Day 66 of culture, 0 μg/mL 1881",2392
same,"Proliferation (luminescent ATP assay), Mean","[2]; T-cell line 165-C4C, 10 μg/mL antigen, Day 66 of culture, 0 μg/mL 1881",2233
same,"Proliferation (luminescent ATP assay), Mean","[2]; T-cell line 165-C7C, 1.25 μg/mL antigen, autologous B-LCL",273 RLU
same,"Proliferation (luminescent ATP assay), Mean","[2]; T-cell line 165-C7C, 2.5 μg/mL antigen, autologous B-LCL",231 RLU
same,"Proliferation (luminescent ATP assay), Mean","[2]; T-cell line 165-C7C, 5 μg/mL antigen, autologous B-LCL",224 RLU
same,"Proliferation (luminescent ATP assay), Mean","[2]; T-cell line 165-C7C, 10 μg/mL antigen, autologous B-LCL",264 RLU
same,"Proliferation (luminescent ATP assay), Mean","[2]; T-cell line 165-F3C, 1 μg/mL antigen, Day 77 of culture, 0 μg/mL 1563",2387
same,"Proliferation (luminescent ATP assay), Mean","[2]; T-cell line 165-F3C, 3 μg/mL antigen, Day 77 of culture, 0 μg/mL 1563",2269
same,"Proliferation (luminescent ATP assay), Mean","[2]; T-cell line 165-F3C, 10 μg/mL antigen, Day 77 of culture, 0 μg/mL 1563",1772
same,"Proliferation (luminescent ATP assay), Mean","[2]; T-cell line 165-F6C, 1.25 μg/mL antigen, Day 76 of culture, No Antigen value 517",576
same,"Proliferation (luminescent ATP assay), Mean","[2]; T-cell line 165-F6C, 2.5 μg/mL antigen, Day 76 of culture, No Antigen value 517",620
same,"Proliferation (luminescent ATP assay), Mean","[2]; T-cell line 165-F6C, 5 μg/mL antigen, Day 76 of culture, No Antigen value 517",479
same,"Proliferation (luminescent ATP assay), Mean","[2]; T-cell line 165-F6C, 10 μg/mL antigen, Day 76 of culture, No Antigen value 517",411
same,Non-Canonical Peptide Non-Reactivity,[3]; 165-B5G,GAT 111
same,Non-Canonical Peptide Non-Reactivity,[3]; 165-C5G,GAT 111
same,Non-Canonical Peptide Non-Reactivity,[3]; 165-E7G,GAT 111
same,Non-Canonical Peptide Non-Reactivity,[3]; 165-E9G,GAT 111
same,Non-Canonical Peptide Non-Reactivity,[3]; 165-F5G,GAT 111
same,Non-Canonical Peptide Non-Reactivity,[3]; 165-F10G,GAT 111
same,Non-Canonical Peptide Non-Reactivity,[3]; 165-H11G,GAT 111
same,Nonreactive T-Cell Line,"[3]; Donor 3 GMA lines, stimulation with the non-canonical GA peptide",165-B5G (Donor 3) and 165-C5G (Donor 3) and 165-C8G (Donor 3) and 165-E7G (Donor 3) and 165-E9G (Donor 3) and 165-F5G (Donor 3) and 165-F10G (Donor 3) and 165-H11G (Donor 3)
same,"Proliferation (luminescent ATP assay), Mean","[3]; T-cell line 165-05G, 1 μg/mL antigen, Day 50 of culturing, No Antigen Value 2149",1778 RLU
same,"Proliferation (luminescent ATP assay), Mean","[3]; T-cell line 165-05G, 3 μg/mL antigen, Day 50 of culturing, No Antigen Value 2149",1661 RLU
same,"Proliferation (luminescent ATP assay), Mean","[3]; T-cell line 165-05G, 10 μg/mL antigen, Day 50 of culturing, No Antigen Value 2149",1569 RLU
same,"Proliferation (luminescent ATP assay), Mean","[3]; T-cell line 165-05G, 30 μg/mL antigen, Day 50 of culturing, No Antigen Value 2149",1449 RLU
same,"Proliferation (luminescent ATP assay), Mean","[3]; T-cell line 165-B5G, 1.25 μg/mL antigen, Day 55 of culturing, No Antigen Value 846",1005 RLU
